Assay results published in the NIST ThermoML archive (doi:10.1007/s10765-009-0665-4).

Experiments:
[1] = 293.15 K; 101.33 kPa; Liquid; Sing-around technique in a fixed-path interferometer
[2] = xn = mol fraction of the nth substance listed; conditions: 293.15 K, 101 kPa, Liquid; for speed of sound: Sing-around technique in a fixed-path interferometer

CCCCO [butan-1-ol]
Conditions | speed of sound [m/s]
[1] | 1256.3

C1CCCCC1 [cyclohexane]
Conditions | speed of sound [m/s]
[1] | 1279

CCCCCC [hexane] + CCCCO
[2]
Conditions | mass density [kg/m3] | speed of sound [m/s]
x2 = 0.00305 | 659.9 | 1099
x2 = 0.04764 | 664.4 | 1099.2
x2 = 0.1026 | 670.3 | 1099.8
x2 = 0.1225 | 672.4 | 1100.5
x2 = 0.1509 | 675.6 | 1101.6
x2 = 0.2261 | 684.4 | 1105.9
x2 = 0.2979 | 693.4 | 1112.1
x2 = 0.4965 | 720.9 | 1140
x2 = 0.6128 | 738.8 | 1160.2
x2 = 0.6817 | 750.1 | 1174
x2 = 0.7658 | 764.5 | 1192.1
x2 = 0.8937 | 788.1 | 1224.5

CC(C)CO [2-methyl-1-propanol]
Conditions | speed of sound [m/s]
[1] | 1204.1

CCCCCC [hexane]
Conditions | speed of sound [m/s]
[1] | 1098.9

C1CCCCC1 [cyclohexane] + CCCCO
[2]
Conditions | mass density [kg/m3] | speed of sound [m/s]
x2 = 0.00115 | 778.6 | 1278.7
x2 = 0.00245 | 778.5 | 1277.7
x2 = 0.0124 | 778.5 | 1274.6
x2 = 0.0262 | 778.7 | 1271.5
x2 = 0.04084 | 778.8 | 1269.3
x2 = 0.07249 | 779.3 | 1265.3
x2 = 0.1395 | 780.4 | 1258.6
x2 = 0.1897 | 781.4 | 1254.6
x2 = 0.3017 | 784 | 1248.8
x2 = 0.5175 | 790.4 | 1244.4
x2 = 0.6162 | 793.7 | 1244.8
x2 = 0.7983 | 800.8 | 1248.2
